Holding throughout (type): cell-based
Assay [1] concerns EcR1: Penicillinase-Producing Escherichia coli without Associated Resistance. As to the kind of experiment: Antibiogram, MIC by the VITEK 2 system. To be noted: for CA-SFM Interpretation: EcR1, MIC against Cc CA-SFM 2011; for CLSI Interpretation: EcR1, MIC against Cc CLSI 2011; for EUCAST Interpretation: EcR1, MIC against Cc EUCAST 2011; for Results: EcR1, interpretation of the MIC, Table A1; for MIC: Escherichia coli. The procedure: (§1) 5.1 EcR1: Penicillinase-Producing Escherichia coli without Associated Resistance The bacterial and antibiogramidentification is carried out by the VITEK 2 system (bioMérieux) and by the disk diffusion technique.

Assay [2] shares this test system. As to the kind of experiment: Antibiogram by the disk diffusion technique. To be noted: Table A1; for Diameter: EcR1, disk diffusion; for Results: EcR1, interpretation of the diameter against Dmin Dmax. As for the experimental part: as §1
In assay [3] the test system is EcR2: Cephalosporinase-Hyperproducing Strain of Escherichia coli. As to the kind of experiment: Antibiogram, MIC by the VITEK 1 system. To be noted: for CA-SFM Interpretation / CLSI Interpretation / EUCAST Interpretation: from MIC; for CA-SFM Interpretation: Cc CA-SFM 2011; for CLSI Interpretation: Cc CLSI 2011; for EUCAST Interpretation: Cc EUCAST 2011; for MIC: Escherichia coli, read-out: MIC. As for the experimental part: (§2) The bacterial and antibiogramidentification is carried out by the VITEK 1 system (bioMérieux) and by the disk diffusion technique

Assay [4] shares this test system. Briefly: Antibiogram by the disk diffusion technique. The settings on record: for Results: EcR2, rows that print a diameter. The procedure:
as §2
For orientation: A growth-free zone around the sample is the usual read-out of agar diffusion tests.

Assay [5] deals with EcR3: ESBL-Producing Escherichia coli. Briefly: Antibiogram by the disk diffusion technique. To be noted: for CA-SFM Interpretation: Cd CA-SFM 2011; for CLSI Interpretation: Cd CLSI 2011; for EUCAST Interpretation: Cd EUCAST 2011; for Diameter: Table C1; for Results: Table C1, against Dmin Dmax; for diameter in mm: Table C2. As for the experimental part: The bacterial and antibiogramidentification is carried out by the VITEK 2 system (bioMerieux) and by the disk diffusion technique

The test system of assay [6] is PaR5: Pseudomonas aeruginosa. As to the kind of experiment: Antibiogram by the disk diffusion technique. The settings on record: for Diameter / Results / CA-SFM Interpretation / CLSI Interpretation / EUCAST Interpretation: PaR5; for Diameter / Results: Table I1; for Results: against Dmin-Dmax; for diameter in mm: disk diffusion inhibition diameter, strain PaR5; for CA-SFM Interpretation / CLSI Interpretation / EUCAST Interpretation: disk diffusion; for CA-SFM Interpretation: versus critical diameter CA-SFM 2011; for CLSI Interpretation: versus critical diameter CLSI 2011; for EUCAST Interpretation: versus critical diameter EUCAST 2011, for ** antibiotics the disk load differs and the EUCAST interpretation is not applicable. The procedure: (§3) The bacterial and antibiogramidentification is carried out by the VITEK 2 system (bioMérieux) and by the disk diffusion technique

The test system of assay [7] is PaR2: Pseudomonas aeruginosa. The settings on record: for CA-SFM Interpretation: Cd CA-SFM 2011; for CLSI Interpretation: Cd CLSI 2011; for EUCAST Interpretation: Cd EUCAST 2011; for Diameter: Table G1; for Results: Table G1, against Dmin-Dmax; for diameter in mm: Table G2. The procedure:
as §3

Assay [8] has as its system SaR3: Meticillin-Resistant Staphylococcus aureus. As to the kind of experiment: Antibiogram by the disk diffusion technique. To be noted: for CA-SFM Interpretation: Cd CA-SFM 2011; for CLSI Interpretation: Cd CLSI 2011; for diameter in mm: Table E2; for Diameter: Table E1; for Results: Table E1, against Dmin Dmax. The procedure:
as §3

In assay [9] the test system is SaR4: Meticillin-Resistant Staphylococcus aureus. Briefly: Antibiogram, MIC by the VITEK 2 system. To be noted: SaR4; for CA-SFM Interpretation: Cc CA-SFM 2011. The procedure:
as §3

In assay [10] the test system is SaR1: Meticillin-Resistant Staphylococcus aureus without Associated Resistance. As to the kind of experiment: Antibiogram, inhibition diameter (Table D1). To be noted: for Results: from diameter, against Dmin Dmax. As for the experimental part: (§4) The bacterial and antibiogramidentification is carried out by the VITEK 2 system (bioMérieux)
Assay [11] shares this test system. As to the kind of experiment: Antibiogram, MIC by the VITEK 2 system. To be noted: SaR1; for CA-SFM Interpretation: Cc CA-SFM 2011; for Results: from MIC. The procedure: as §4
For assay [12], the system named is PaR3: Pseudomonas aeruginosa. Briefly: Antibiogram, MIC by the VITEK 2 system. The procedure: as §4
[13] abbreviates: EcR1, Table A2, read-out: MIC mg/L (diameter in mm).
[14] abbreviates: EcR1, VITEK 2, Table A1, read-out: MIC.
Setting [15] is: Staphylococcus aureus, Table F1, read-out: MIC.

Values after ≈ are worked out from the molar mass of the structure shown. Like-named read-outs stand apart in the source and are kept apart here.

The source of these data is patent US20140066365A1, “USE OF CALIXARENES ASSOCIATED WITH AN ANTIBIOTIC IN THE TREATMENT OF BACTERIAL INFECTIONS” (priority 2011, published 2014).

Consider `CCN[C@@H]1C[C@H](N)[C@@H](O[C@H]2OC(CN)=CC[C@H]2N)[C@H](O)[C@H]1O[C@H]1OC[C@](C)(O)[C@H](NC)[C@H]1O` [Netilmicin], for which the “CA-SFM Interpretation” value in assay [1] is reported as “Susceptible”; in [3] (EcR2) it was “Susceptible”; in assay [5], “Resistant”; in assay [6], “Susceptible”; in assay [7] it was “Susceptible”. Moreover, the “CLSI Interpretation” value in assay [1] is recorded as “Susceptible”; in [3] (EcR2), “Susceptible”; in assay [5], “Resistant”; in assay [6] it was “Susceptible”; in assay [7] it was “Susceptible”. Moreover, the “EUCAST Interpretation” value was “Susceptible” in [1]; “Susceptible” in assay [3] (EcR2); “Resistant” in assay [5]; “Susceptible” in assay [6]; “Susceptible” in assay [7]. The Results entry is recorded as “Susceptible” in assay [1]; “Susceptible” in [2]; “Susceptible” in assay [4] (Table B1); “Resistant” in [5]; “Susceptible” in [6]; “Susceptible” in assay [7]. Also, the MIC in [1] (setting [13]) is at most 1 mg/L; in assay [1] (setting [14]) it was at most 1 mg/L; in assay [3] (EcR2, VITEK 1, Table B1), at most 1 µg/mL; in assay [3] (EcR2, Table B2, MIC), at most 1 µg/mL. Moreover, the Diameter was determined as 24 mm in assay [2]; 21 in [4] (EcR2, disk diffusion, Table B1); 10 mm in assay [5]; 28 mm in [6]; 19 mm in assay [7]. For the same compound, the diameter in mm in assay [5] amounted to 10 mm; in assay [6] it was 28 mm; in assay [7], 19 mm.

For the compound `CO[C@@]1(NC(=O)Cc2cccs2)C(=O)N2C(C(=O)O)=C(COC(N)=O)CS[C@@H]21` [Cefoxitin], the “CA-SFM Interpretation” value in [1] is “Susceptible”; in assay [4] (EcR2, from diameter, CA-SFM 2011), “Resistant”; in [5], “Resistant”; in assay [8] it was “Resistant”. The “CLSI Interpretation” value is “Susceptible” in assay [1]; “Resistant” in assay [4] (EcR2, from diameter, CLSI 2011); “Resistant” in assay [5]; “Resistant” in [8]. Further, the Results result in [1] is listed as “Susceptible”; in assay [2], “Susceptible”; in assay [4] (Table B1), “Resistant”; in assay [5], “Intermediate”. In addition, the MIC in assay [1] (setting [13]) and in assay [1] (setting [14]) was at most 4 mg/L throughout. Further, the Diameter in [2] amounted to 24 mm; in assay [4] (EcR2, disk diffusion, Table B1), 11; in [4] (EcR2, Table B2, diameters), 11 mm. Further, the “EUCAST Interpretation” value in assay [4] (EcR2, from diameter, EUCAST 2011) is on record as “Resistant”; in assay [5] it was “Resistant”; in assay [8] (Cd EUCAST 2011), “Resistant”. Besides, the diameter in mm in assay [5] is on record as 6 mm; in assay [8], 17 mm.

On to `O=C(N[C@H](CO)[C@H](O)c1ccc([N+](=O)[O-])cc1)C(Cl)Cl` [Chloramphenicol], for which the Diameter turned out to be 6 mm in assay [8] and 25 mm in assay [10]. Also, the Results result is reported as “Resistant” in assay [8]; “Susceptible” in assay [9] (Table F1, MIC); “Susceptible” in assay [10]. Besides, the MIC in assay [9] (setting [15]) stood at 8 µg/mL (≈ 24.8 µM).

With `CCC[C@@H]1C[C@@H](C(=O)N[C@@H]([C@H]2O[C@H](SC)[C@H](O)[C@@H](O)[C@H]2O)[C@@H](C)O)N(C)C1` [Lincomycin], the “CA-SFM Interpretation” value in assay [11] is given as “Susceptible”; in [8] it was “Susceptible”; in assay [9] (from MIC), “Resistant”. The Results result was “Susceptible” in [11] (Table D1); “Susceptible” in [8]; “Resistant” in [9] (Table F1, MIC); “Susceptible” in assay [10]. Further, in assay [11] (Table D2), the “MIC mg/L” value is “≦1 mg/L”. The MIC in assay [11] (Staphylococcus aureus, Table D1, read-out: MIC) is at most 1 µg/mL; in assay [9] (setting [15]), at least 16 µg/mL; in assay [9] (Staphylococcus aureus, Table F2, MIC, read-out: MIC), at least 16 µg/mL. The Diameter in assay [8] was 23 mm; in [10], 24 mm. In assay [8], this compound yielded a diameter in mm of 23 mm.

Regarding `CC1(C)S[C@@H]2[C@H](NC(=O)[C@H](C(=O)O)c3ccsc3)C(=O)N2[C@H]1C(=O)O` [Ticarcillin], the “CA-SFM Interpretation” value in [1] is “Resistant”; in assay [3] (EcR2) it was “Resistant”; in assay [5], “Resistant”; in [12] (Cc CA-SFM 2011) it was “Resistant”; in [6], “Susceptible”; in assay [7] it was “Resistant”. In addition, the “CLSI Interpretation” value in assay [1] was “Resistant”; in assay [3] (EcR2), “Resistant”; in assay [5] it was “Resistant”; in assay [12] (Cc CLSI 2011) it was “Resistant”; in assay [6] it was “Susceptible”; in [7], “Resistant”. For the same compound, the “EUCAST Interpretation” value is reported as “Resistant” in assay [1]; “Resistant” in assay [3] (EcR2); “Resistant” in assay [5]; “Resistant” in assay [12] (Cc EUCAST 2011); “Susceptible” in [6]; “Resistant” in [7]. Moreover, the Results entry in assay [1] is “Resistant”; in assay [2], “Resistant”; in [3] (EcR2, Table B1), “Intermediate”; in assay [5], “Resistant”; in assay [12] (Table H1), “Resistant”; in assay [6], “Susceptible”. Further, the Results entry in assay [7] is given as “Resistant”. Further, the MIC in assay [1] (setting [13]) is at least 128 mg/L; in assay [1] (setting [14]) it was at least 128 mg/L; in assay [3] (EcR2, VITEK 1, Table B1), 32 µg/mL (≈ 83.2 µM); in assay [3] (EcR2, Table B2, MIC), 32 µg/mL (≈ 83.2 µM); in [12] (Pseudomonas aeruginosa, Table H2, read-out: MIC), at least 128 µg/mL; in assay [12] (Table H1) it was “≧128”. Also, the Diameter in [2] is 6 mm; in assay [5] it was 6 mm; in assay [6] it was 32 mm; in [7], 10 mm. Moreover, the diameter in mm in assay [5] is 6 mm; in assay [6] it was 32 mm; in assay [7] it was 10 mm.

On to Teicoplanin, for which the “CA-SFM Interpretation” value in [11], in assay [8] and in [9] (from MIC) was “Susceptible” throughout. In addition, the “CLSI Interpretation” value in assay [11] (Cc CLSI 2011) was “Susceptible”; in assay [8], “Susceptible”; in [9] (from MIC, Cc CLSI 2011), “Susceptible”. Moreover, the “EUCAST Interpretation” value in assay [11] (Cc EUCAST 2011) is “Susceptible”; in assay [9] (from MIC, Cc EUCAST 2011), “Susceptible”. Further, the “MIC mg/L” value in [11] (Table D1) is given as “≦0.5 mg/L”; in assay [11] (Table D2) it was “≦0.5 mg/L”; in [9] (Table F1), “≦4 mg/L”. For the same compound, the Results entry in assay [11] (Table D1) was “Susceptible”; in [8] it was “Susceptible”; in assay [9] (Table F1, MIC), “Susceptible”; in assay [10] it was “Susceptible”. Further, the diameter in mm in [8] worked out at 27 mm. Also, the MIC result in [9] (Table F2, MIC) is “≦4 mg/L”.
